ChEMBL document CHEMBL3885861, “Open TG-GATES”

Species: Rattus norvegicus
Assay: Open TG-GATES - Regimen: Single
Assay type: toxicity, organism-based, Sprague-Dawley
Set-up: regimen Single, gender Male, age 6 weeks
Conditions: in vivo, po, route gavage; for APTT / Bas / Eos / Fbg / Hb / Ht / Lym / MCH / MCHC / MCV / Mono / Neu / PT / Plat / RBC / Ret / WBC: tissue Blood; for KIDNEY_L / KIDNEY_R / KIDNEY_TOTAL: tissue Kidney; for LIVER: tissue Liver; for A/G / ALP / ALT / AST / BUN / CRE / Ca / Cl / DBIL / GLC / IP / K / LDH / Na / PL / RALB / TBIL / TC / TG / TP / gamma-GTP: tissue Plasma
[1] = 0 mg/kg, 3 h, dose level Control
[2] = 0 mg/kg, 6 h, dose level Control
[3] = 0 mg/kg, 9 h, dose level Control
[4] = 0 mg/kg, 24 h, dose level Control

## Cc1ccc(C)c(OCCCC(C)(C)C(=O)O)c1 [GEMFIBROZIL]
[1]
  TERMINAL_BW: 223.7 g
  APTT: 16.9 s
  Bas: 0%
  Eos: 0.6%
  Fbg: 276.4 mg/dL
  Hb: 14 g/dL
  Ht: 40.2%
  Lym: 81.2%
  MCH: 22.6 pg
  MCHC: 34.9%
  MCV: 64.7 fL
  Mono: 2.8%
  Neu: 14.6%
  PT: 12.3 s
  Plat: 124.4 x10_4/uL
  RBC: 621.6 x10_4/ul
  Ret: 8%
  WBC: 76.9 x10_2/uL
  KIDNEY_L: 1 g
  KIDNEY_R: 0.9 g
  KIDNEY_TOTAL: 1.9 g
  LIVER: 9.8 g
  A/G: 0.9
  ALP: 1456 IU/L
  ALT: 45.2 IU/L
  AST: 71.2 IU/L
  BUN: 12.6 mg/dL
  CRE: 0.2 mg/dL
  Ca: 11.3 mg/dL
  Cl: 105 meq/L
  DBIL: 0.046 mg/dL
  GLC: 180.6 mg/dL
  IP: 10.4 mg/dL
  K: 4.2 meq/L
  LDH: 74 IU/L
  Na: 140.2 meq/L
  PL: 179.2 mg/dL
  RALB: 2.6 g/dL
  TBIL: 0.052 mg/dL
  TC: 86.4 mg/dL
  TG: 155.8 mg/dL
  TP: 5.6 g/dL
  gamma-GTP: 1 IU/L
[2]
  TERMINAL_BW: 221.6 g
  APTT: 16.7 s
  Bas: 0%
  Eos: 0.8%
  Fbg: 299 mg/dL
  Hb: 13.9 g/dL
  Ht: 40.6%
  Lym: 75.4%
  MCH: 21.4 pg
  MCHC: 34.3%
  MCV: 62.5 fL
  Mono: 3.6%
  Neu: 19.2%
  PT: 12.1 s
  Plat: 127 x10_4/uL
  RBC: 649.8 x10_4/ul
  Ret: 7.3%
  WBC: 71.6 x10_2/uL
  KIDNEY_L: 0.9 g
  KIDNEY_R: 0.9 g
  KIDNEY_TOTAL: 1.8 g
  LIVER: 9.1 g
  A/G: 0.9
  ALP: 1398 IU/L
  ALT: 43 IU/L
  AST: 70.6 IU/L
  BUN: 9.6 mg/dL
  CRE: 0.2 mg/dL
  Ca: 11.1 mg/dL
  Cl: 107.4 meq/L
  DBIL: 0.024 mg/dL
  GLC: 183 mg/dL
  IP: 10.9 mg/dL
  K: 4.3 meq/L
  LDH: 60.8 IU/L
  Na: 141.6 meq/L
  PL: 156 mg/dL
  RALB: 2.7 g/dL
  TBIL: 0.046 mg/dL
  TC: 86.2 mg/dL
  TG: 71.2 mg/dL
  TP: 5.6 g/dL
  gamma-GTP: 1.4 IU/L
[3]
  TERMINAL_BW: 223.1 g
  APTT: 15.5 s
  Bas: 0%
  Eos: 1%
  Fbg: 302.2 mg/dL
  Hb: 14 g/dL
  Ht: 41%
  Lym: 80%
  MCH: 21.6 pg
  MCHC: 34.1%
  MCV: 63.4 fL
  Mono: 2.6%
  Neu: 15.8%
  PT: 12.3 s
  Plat: 110.9 x10_4/uL
  RBC: 646.6 x10_4/ul
  Ret: 7.6%
  WBC: 69.8 x10_2/uL
  KIDNEY_L: 0.9 g
  KIDNEY_R: 0.9 g
  KIDNEY_TOTAL: 1.8 g
  LIVER: 8.6 g
  A/G: 0.9
  ALP: 1255.2 IU/L
  ALT: 36.6 IU/L
  AST: 65.4 IU/L
  BUN: 12 mg/dL
  CRE: 0.2 mg/dL
  Ca: 11.1 mg/dL
  Cl: 107 meq/L
  DBIL: 0.02 mg/dL
  GLC: 194.2 mg/dL
  IP: 11.9 mg/dL
  K: 4 meq/L
  LDH: 58 IU/L
  Na: 143.4 meq/L
  PL: 150.2 mg/dL
  RALB: 2.6 g/dL
  TBIL: 0.046 mg/dL
  TC: 82.2 mg/dL
  TG: 60.4 mg/dL
  TP: 5.4 g/dL
  gamma-GTP: 1.2 IU/L
[4]
  TERMINAL_BW: 226.6 g
  APTT: 14.7 s
  Bas: 0%
  Eos: 0.8%
  Fbg: 286 mg/dL
  Hb: 13.5 g/dL
  Ht: 38.9%
  Lym: 78.2%
  MCH: 21.7 pg
  MCHC: 34.7%
  MCV: 62.6 fL
  Mono: 2.6%
  Neu: 17.8%
  PT: 12 s
  Plat: 117.7 x10_4/uL
  RBC: 621.8 x10_4/ul
  Ret: 6.6%
  WBC: 87.1 x10_2/uL
  KIDNEY_L: 1 g
  KIDNEY_R: 0.9 g
  KIDNEY_TOTAL: 1.9 g
  LIVER: 10.2 g
  A/G: 1
  ALP: 1725.4 IU/L
  ALT: 48 IU/L
  AST: 74.6 IU/L
  BUN: 16.2 mg/dL
  CRE: 0.2 mg/dL
  Ca: 11.4 mg/dL
  Cl: 104.8 meq/L
  DBIL: 0.024 mg/dL
  GLC: 187 mg/dL
  IP: 8.7 mg/dL
  K: 4.1 meq/L
  LDH: 79.8 IU/L
  Na: 142 meq/L
  PL: 144.6 mg/dL
  RALB: 2.7 g/dL
  TBIL: 0.034 mg/dL
  TC: 78 mg/dL
  TG: 75 mg/dL
  TP: 5.6 g/dL
  gamma-GTP: 1 IU/L
30 mg/kg, 3 h, dose level Low
  TERMINAL_BW: 219.6 g
  APTT: 16 s
  Bas: 0%
  Eos: 0.6%
  Fbg: 282.6 mg/dL
  Hb: 14.2 g/dL
  Ht: 41%
  Lym: 79.2%
  MCH: 22.1 pg
  MCHC: 34.7%
  MCV: 63.6 fL
  Mono: 2.8%
  Neu: 16.6%
  PT: 12.4 s
  Plat: 113.5 x10_4/uL
  RBC: 644.2 x10_4/ul
  Ret: 7%
  WBC: 92.7 x10_2/uL
  KIDNEY_L: 0.9 g
  KIDNEY_R: 0.9 g
  KIDNEY_TOTAL: 1.8 g
  LIVER: 9.1 g
  A/G: 0.9
  ALP: 1552.4 IU/L
  ALT: 48.6 IU/L
  AST: 74.6 IU/L
  BUN: 11.6 mg/dL
  CRE: 0.2 mg/dL
  Ca: 11.2 mg/dL
  Cl: 106.8 meq/L
  DBIL: 0.046 mg/dL
  GLC: 181 mg/dL
  IP: 9.7 mg/dL
  K: 4 meq/L
  LDH: 60.8 IU/L
  Na: 141.6 meq/L
  PL: 156.2 mg/dL
  RALB: 2.6 g/dL
  TBIL: 0.048 mg/dL
  TC: 70 mg/dL
  TG: 141.4 mg/dL
  TP: 5.5 g/dL
  gamma-GTP: 1 IU/L
30 mg/kg, 6 h, dose level Low
  TERMINAL_BW: 221.2 g
  APTT: 15.2 s
  Bas: 0%
  Eos: 0.6%
  Fbg: 335.6 mg/dL
  Hb: 14.3 g/dL
  Ht: 41.1%
  Lym: 78.6%
  MCH: 22.1 pg
  MCHC: 34.9%
  MCV: 63.4 fL
  Mono: 2.4%
  Neu: 17.6%
  PT: 12.3 s
  Plat: 122 x10_4/uL
  RBC: 649.2 x10_4/ul
  Ret: 6.8%
  WBC: 75.7 x10_2/uL
  KIDNEY_L: 1 g
  KIDNEY_R: 0.9 g
  KIDNEY_TOTAL: 1.9 g
  LIVER: 9.2 g
  A/G: 0.9
  ALP: 1429.6 IU/L
  ALT: 41 IU/L
  AST: 75 IU/L
  BUN: 10.4 mg/dL
  CRE: 0.2 mg/dL
  Ca: 11.3 mg/dL
  Cl: 107.2 meq/L
  DBIL: 0.044 mg/dL
  GLC: 188 mg/dL
  IP: 10.4 mg/dL
  K: 4.2 meq/L
  LDH: 60.6 IU/L
  Na: 142.2 meq/L
  PL: 150.4 mg/dL
  RALB: 2.7 g/dL
  TBIL: 0.054 mg/dL
  TC: 77.2 mg/dL
  TG: 90.2 mg/dL
  TP: 5.6 g/dL
  gamma-GTP: 1.6 IU/L
30 mg/kg, 9 h, dose level Low
  TERMINAL_BW: 224 g
  APTT: 15 s
  Bas: 0%
  Eos: 0.8%
  Fbg: 313 mg/dL
  Hb: 13.8 g/dL
  Ht: 40.2%
  Lym: 76.8%
  MCH: 21.3 pg
  MCHC: 34.3%
  MCV: 62 fL
  Mono: 3.4%
  Neu: 18%
  PT: 12 s
  Plat: 106.6 x10_4/uL
  RBC: 649.2 x10_4/ul
  Ret: 7.1%
  WBC: 68.1 x10_2/uL
  KIDNEY_L: 0.9 g
  KIDNEY_R: 0.9 g
  KIDNEY_TOTAL: 1.9 g
  LIVER: 8.6 g
  A/G: 0.9
  ALP: 1676.4 IU/L
  ALT: 38 IU/L
  AST: 69.2 IU/L
  BUN: 11.8 mg/dL
  CRE: 0.2 mg/dL
  Ca: 10.9 mg/dL
  Cl: 107 meq/L
  DBIL: 0.046 mg/dL
  GLC: 189.2 mg/dL
  IP: 11.3 mg/dL
  K: 3.8 meq/L
  LDH: 52.8 IU/L
  Na: 143.4 meq/L
  PL: 147 mg/dL
  RALB: 2.6 g/dL
  TBIL: 0.05 mg/dL
  TC: 78.6 mg/dL
  TG: 66.4 mg/dL
  TP: 5.4 g/dL
  gamma-GTP: 1 IU/L
30 mg/kg, 24 h, dose level Low
  TERMINAL_BW: 227.1 g
  APTT: 14.5 s
  Bas: 0%
  Eos: 1%
  Fbg: 284.8 mg/dL
  Hb: 13.8 g/dL
  Ht: 39.8%
  Lym: 75.6%
  MCH: 22.3 pg
  MCHC: 34.7%
  MCV: 64.3 fL
  Mono: 2.4%
  Neu: 20.6%
  PT: 12.1 s
  Plat: 112.3 x10_4/uL
  RBC: 620 x10_4/ul
  Ret: 7.1%
  WBC: 70.3 x10_2/uL
  KIDNEY_L: 1 g
  KIDNEY_R: 1 g
  KIDNEY_TOTAL: 2 g
  LIVER: 10.5 g
  A/G: 0.9
  ALP: 1729.6 IU/L
  ALT: 47.4 IU/L
  AST: 70.4 IU/L
  BUN: 16 mg/dL
  CRE: 0.2 mg/dL
  Ca: 11.3 mg/dL
  Cl: 106.4 meq/L
  DBIL: 0.044 mg/dL
  GLC: 191 mg/dL
  IP: 7.7 mg/dL
  K: 4.5 meq/L
  LDH: 63.6 IU/L
  Na: 142.2 meq/L
  PL: 137.6 mg/dL
  RALB: 2.7 g/dL
  TBIL: 0.036 mg/dL
  TC: 68.6 mg/dL
  TG: 100.6 mg/dL
  TP: 5.6 g/dL
  gamma-GTP: 0.8 IU/L
